The record followed here is patent US20240140953A1, “INHIBITORS OF MENIN-MLL INTERACTION” (BIOMEA FUSION, INC., priority 2018, published 2024).

One assay relates to MV-4-11. In words: Long term proliferation assay (Table 3A), MV-4-11. Format: cell-based. Particulars: Homo sapiens, MV4-11; MV-4-11, Day 4; read-out: MV-4-11 Day 4 IC50. The method, then:
(§1) Example 5b: IC50 determination of compounds of invention in various cell lines (Long Term Proliferation Assay)
(§2) The following 5 cell lines are used or can be used for the long term proliferation assay.
(§3) Compounds of invention are tested in the 5 suspension lines by 14-day long-term proliferation assay.
(§4) The compound is tested in 10-pt dose titration (client will determine the starting concentration and the dilution scheme) and the final DMSO concentration is kept at 0.2%.
(§5) Vehicle and media control are also included. All treatments are done in triplicate.
(§6) 3 plates are used for each cell line and 15 plates are used for the 5 cell lines.
(§7) • 1) On Day 0, in a flat bottom 96-well plate, add 100 μL of cells per well at the densities optimized. • 2) Prepare compounds in DMSO at 500× final concentration. Dilute the compounds with DMSO at the dilution. • 3) Dilute the compounds in media at 3×final concentration. Add 50 μL of compound or DMSO at 3× final concentration to each well. Final volume in each well is 150 μL, and final concentration of DMSO is 0.2%. Also include 3 untreated control wells, by adding 50 μL of media alone. 4) Incubate plates for 96 hours. • 5) Count the cells using the Acumen, with capabilities for 96-well plates. Pipette cells up and down to mix in each well, and add desired volume of cells to a new flat bottom poly-D-lysine 96-well plate. Add Calcein AM at 1 μM final concentration. Let cells sit at RT for 10 mins followed by a quick spin to get cells settled on the bottom of the wells. Incubate the plate for additional 40 mins in the incubator. Take out the plate and read by Acumen. Calculate the cell numbers taken into account the dilution factors. • 6) Split the master plate. To do this take the total viable cell count calculated using step 5). Take the average of the replicates for each dose in order to be used in splitting the cells. • 7) Use a 96 well V-bottom plate to spin down the cells to remove old media and compound to split the cells. Based on the split ratio place the proper amount of media and cells into the V-bottom plate, and spin the plate at 1100 rpm for 5 minutes. • 8) Following the spin remove the media, careful not to disturb the cellpellet. • 9) Re-suspend pellet in 100 μL fresh media, and add to a new 96-well flat bottom plate. • 10) Add fresh compound, in the same manner as Step 3). • 11) Incubate plates for 72 hours. Repeat steps 5)-10) on Day 7. • 12) Incubate plates for 96 hours. Repeat Step 5)-10) on Day 11. • 13) Incubate 72 hours and repeat step 5) to take a final count. • 14) Data Analysis
(§8) To calculate growth for days 4, 7, 11, and 14: • Calculate the split factor for day 4 to 7, day 7 to 11, and day 11-14.

For another assay, the target named is menin (Homo sapiens (Human), UniProt O00255). In words: Kd (Table 3A). Format: binding.
The test system of a further assay is HL-60. In words: Proliferation study, CellTiterGlo, 4 days (Example 102), HL-60. Format: cell-based. To be noted: HL-60, 4 days treatment; for HL-60 % max: maximal inhibition; for IC50: Homo sapiens, 96 h, CellTiterGlo. The source says: (§9) The objective of the study was to evaluate the ability of representative compounds of the present invention, inhibitors of Menin/MLL interaction to inhibit cell proliferation. The proliferation inhibitory effect was investigated in two human MLL-leukemia cells selected on the bases of MLL fusion protein and listed in Table 102. HL-60 cell line was used as negative control.
(§10) ATP is present in all metabolically active cells and is considered as a marker for cell viability and proliferation. The metabolic cell activity was determined using the CellTiter-Glo kit from Promega, an ATP monitoring system based on the production of luminescence by the reaction of ATP with added UltraGlo® recombinant luciferase (Kawano et al., 2016), according to the supplier's experimental recommendations.
(§11) The described assay evaluates the ability of 4 representative compounds to inhibit the cell proliferation in the human MLL-leukemia cells plus a negative control cell line.
(§12) The assay provides potency values (IC50) for each test compound at a single time point Day 4 (T4).
(§13) Seven concentrations of the compounds (2.00E-05-6.67E-06-2.22E-06-7.41E-07-2.47E-07-8.23E-08-2.74E-08M), were assessed in duplicate in an individual test occasion in all the cell lines. MI-503 (Borkin et al., 2015) was used as reference compound and was tested at the same concentrations as the NCEs. 100% of proliferation is represented by the untreated cells (0.2% DMSO). The cell growth was monitored up to 4 days in culture.
(§14) MV4-11, MOLM-13 and HL-60 cells (see Table 2) were maintained in RPMI-1640 medium (Invitrogen, Cat. n. 618700, Batch n. 1965930) supplemented with 10% of Heat Inactivated FBS (Invitrogen, Cat n. 10500, Batch n. 08Q8078K) and 1% Pen-Strep (Invitrogen, Cat. N. 15140, Batch n. 1910859) and cultured at 37° C. in a humidified incubator with 5% CO2. All the cell lines grow in suspension and the cell density was maintained in a range of 2×10^5-1×10^6 viable cells/ml. Cells were pelleted at 130 g×5 min and conditioned medium was used to dilute the cell suspension.
(§15) Test items were dissolved in glass vials at 10 mM in DMSO with purity ≥99.9% (Sigma, D8418, batch n. SHBH4245V) and stored at −20° C. in 1.5 mL Eppendorf tubes.
(§16) Serial dilutions 1 to 3 in DMSO 100% were prepared starting from a 10 mM stock solutions to generate 7 points concentration response curve (CRC).
(§17) For each plate to test, one 0.4 μL copy plate and four 0.3 μL copy plates were then stamped into 96-well plates not treated for cell adhesion (Sarstedt—cat.no. 82.1581.001) by acoustic liquid Handling, Echo, at a concentration which was 500 fold the final assay concentration. Stamped plates were stored at −20° C. The final concentrations for the reference compound, MI-503, and the test items were: 2.00E-05, 6.67E-06, 2.22E-06, 7.41E-07, 2.47E-07, 8.23E-08 and 2.74E-08 M.
(§18) Cells were plated in 96-well flat bottom microtiter plates at cell density of 15,000 cells/ml for HL-60, 1000 cells/ml for MOLM-13 and 10,000 cell/ml for MV4-11. Cells were treated with 0.2% DMSO (Sigma, D8418, batch n. SHBH4245V) or serial dilutions of compounds (0.027 μM-20 μM) in DMSO (0.2% final concentration). Cells were incubated in a 5% CO2 incubator at 37° C. for 4 days. A CellTiterGlo viability assay (Promega) was employed. Luminescence was read by using VictorV (Perkin Elmer) multilabel plate reader using the standard protocol for luminescence in 96 well plate. The experiment was performed in duplicate.
(§19) Data were expressed as % of inhibition compared to the 0.2% DMSO negative control, and was calculated as follows: […]
(§20) CRCs were analysed by GraphPad and IC50 values were calculated by non-linear regression using 4 parameter-logistic equation. IC50 (μM) values were reported in the final data table. The curve fittings were performed leaving free all the parameters. Any constrain were reported in the results table.
(In ATP-based viability assays light output follows the ATP content of the culture.)

The subject of the next assay is MOLM-13. In words: Long term proliferation assay (Table 3A), MOLM-13. Particulars: Homo sapiens, 96 h; MOLM-13, Day 4; read-out: MOLM-13 Day 4 IC50. Format: cell-based. The method, then: as §1, §2, §3, §4, §5, §6, §7, §8
The test system of another assay is MV4-11 (MLL-AF4). In words: Proliferation study, CellTiterGlo, 4 days (Example 102), MV4-11. Format: cell-based, human. Particulars: MV4-11, 4 days treatment; for IC50: Homo sapiens, MV4-11, 96 h, CellTiterGlo; for MV4-11 (MLL-AF4) % max: maximal inhibition.
Excerpt: as §9, §10, §11, §12, §13, §14, §15, §16, §17, §18, §19, §20

The subject of the next assay is MOLM-13 (MLL-AF9). The assay is described as follows: Proliferation study, CellTiterGlo, 4 days (Example 102), MOLM-13. Format: cell-based, human. To be noted: MOLM-13, 4 days treatment; for IC50: Homo sapiens, 96 h, CellTiterGlo; for MOLM-13 (MLL-AF9) % max: maximal inhibition.
Excerpt: as §9, §10, §11, §12, §13, §14, §15, §16, §17, §18, §19, §20

Setting [1] is: read-out: HL-60 pIC50 (converted).
Where [2] appears, read: read-out: MV4-11 (MLL-AF4) IC50.
Where [3] appears, read: read-out: MV4-11 (MLL-AF4) pIC50 (converted).
Where [4] appears, read: read-out: MOLM-13 (MLL-AF9) IC50.
Setting [5] is: read-out: MOLM-13 (MLL-AF9) pIC50 (converted).

Like-named read-outs stand apart in the source and are kept apart here.

Sequence of menin (O00255 whole entry, species assumed, the tested form may be a part): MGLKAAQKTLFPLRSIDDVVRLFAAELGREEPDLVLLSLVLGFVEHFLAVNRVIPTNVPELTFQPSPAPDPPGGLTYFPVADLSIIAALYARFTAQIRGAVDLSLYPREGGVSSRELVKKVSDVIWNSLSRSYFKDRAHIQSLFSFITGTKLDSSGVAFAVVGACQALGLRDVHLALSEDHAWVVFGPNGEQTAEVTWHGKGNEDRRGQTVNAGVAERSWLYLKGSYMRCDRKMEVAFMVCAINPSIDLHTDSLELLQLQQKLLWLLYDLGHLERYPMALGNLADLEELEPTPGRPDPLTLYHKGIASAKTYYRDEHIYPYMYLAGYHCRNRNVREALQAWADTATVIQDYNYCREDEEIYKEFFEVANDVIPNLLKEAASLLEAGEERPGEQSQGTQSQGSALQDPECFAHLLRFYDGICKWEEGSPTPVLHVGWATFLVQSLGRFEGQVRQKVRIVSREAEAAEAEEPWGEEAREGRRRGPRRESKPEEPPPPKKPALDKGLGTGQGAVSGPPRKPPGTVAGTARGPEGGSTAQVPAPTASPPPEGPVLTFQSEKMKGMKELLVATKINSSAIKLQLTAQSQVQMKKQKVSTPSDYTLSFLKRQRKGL

`O=C(Cc1cc(-c2cccnc2)n[nH]1)Nc1ccc(-c2cc3c(N4CCOCC4)ncnc3[nH]2)cc1` [Compound 10, N-{4-[4-(morpholin-4-yl)-7H-pyrrolo[2,3-d]pyrimidin-6-yl]phenyl}-2-[3-(pyridin-3-yl)-1H-pyrazol-5-yl]acetamide]: the IC50 in the assay with MV-4-11 was 220 nM; in the assay with HL-60 (read-out: HL-60 IC50), 360 nM; in the assay with HL-60 (setting [1]) it was 363 nM; in the assay on MOLM-13, 310 nM; in the assay on MV4-11 (MLL-AF4) (setting [2]) it was 220 nM; in the assay with MV4-11 (MLL-AF4) (setting [3]), 224 nM. In addition, the values for the IC50 with MOLM-13 (MLL-AF9) (setting [4]) and in the assay on MOLM-13 (MLL-AF9) (setting [5]) were 310 nM and 309 nM, respectively. The equilibrium dissociation constant (Kd) (in general, the free concentration of one partner at which half of the binding sites on the other are occupied at equilibrium, for simple one-to-one binding) on menin was determined as 2700 ± 4000 nM. Further, the HL-60 % max with HL-60 was 65%. For the same molecule, in the assay with MV4-11 (MLL-AF4), the “MV4-11 (MLL-AF4) % max” value is on record as 100%. Further, the “MOLM-13 (MLL-AF9) % max” value with MOLM-13 (MLL-AF9) stood at 94%.

For the molecule `Cc1cn(-c2ncnc3[nH]c(-c4ccc(NC(=O)Cc5cc(-c6cccnc6)n[nH]5)cc4)cc23)cn1` [Compound 13, N-{4-[4-(4-methyl-1H-imidazol-1-yl)-7H-pyrrolo[2,3-d]pyrimidin-6-yl]phenyl}-2-[3-(pyridin-3-yl)-1H-pyrazol-5-yl]acetamide], the IC50 in the assay with MV-4-11 is 910 nM; in the assay on HL-60 (read-out: HL-60 IC50) it was 2750 nM; in the assay on HL-60 (setting [1]) it was 2750 nM; in the assay on MOLM-13 it was 1230 nM; in the assay with MV4-11 (MLL-AF4) (setting [2]) it was 910 nM; in the assay with MV4-11 (MLL-AF4) (setting [3]), 912 nM. The IC50 with MOLM-13 (MLL-AF9) (setting [4]) and in the assay with MOLM-13 (MLL-AF9) (setting [5]) was 1230 nM each time. Moreover, in the assay with HL-60, the HL-60 % max came to 112%. For the same molecule, in the assay with MV4-11 (MLL-AF4), the “MV4-11 (MLL-AF4) % max” value turned out to be 105%. Further, the “MOLM-13 (MLL-AF9) % max” value in the assay on MOLM-13 (MLL-AF9) was 101%.
